Test results as given in patent US4202891A, “15-Oxygenated sterol compounds and the use of such compounds to inhibit the biosynthesis of sterols” (priority 1977, dated 1980).
Where two headings read alike, the source gives them in different places.

Tests used:
[1] = tested on: sterol biosynthesis in L cells; assay: Inhibition of sterol synthesis from [1-14C]acetate in L cell cultures; type: cell-based; conditions: Mus musculus; for inhibition at 0.1 µM: read-out: inhibition of sterol synthesis
Method: (§1) The effect of various 15-oxygenated sterols on sterol biosynthesis in L cells and in primary cultures of mouse liver cells was tested essentially under conditions described in detail previously [A. A. Kandutsch and H. W. Chen, J. Biol. Chem., Vol. 248, pp. 8408-8417 (1973) and A. A. Kandutsch and H. W. Chen, J. Biol. Chem., Vol. 249, pp. 6057-6061 (1974`)].
(§2) The primary liver cell cultures were prepared from 16-day-old (C57BL/6J fetuses and grown in chemically defined medium (serum-free) as described in the above cited publications. The L cells, a subline of NCTC clone 929 mouse fibroblasts, were grown in chemically defined medium (serum-free) as described in the publications. These L cells are transformed fibroblasts which are regarded as malignant since they will grow as tumors if injected into the mouse strain from which they were initially obtained.
(§3) The preparation of steroid-containing media, procedures for assays of the conversion of [1-^14 C]acetate into digitonin-precipitable sterols, fatty acids, and CO2 and methods for the measurement of DNA, protein, and HMG-CoA reductase were as described in the published articles. L cell cultures were preincubated with the 15-oxygenated sterols and their derivatives for 4 hours, then [1-^14 C]acetate was added at a concentration of 4 μmoles per ml (4 μCi per ml); or the L cell cultures were incubated for 5 hours with the 15-oxygenated sterols before they were harvested for determination of microsomal HMG-CoA reductase activity.
(§4) The test compounds were tested over a range of at least 4 concentrations and the assay was repeated until the concentration of test compound required to produce 50% inhibition was located on the steeply declining portion of an activity vs. concentration plot. To diminish any possible effects of generalized differences in cellular metabolism, the rates of sterol synthesis from [1-^14 C]acetate were calculated as the ratio of [^14 C]sterols to [^14 C]fatty acids as described in the two cited articles by Kandutsch and Chen.

[2] = tested on: sterol biosynthesis in primary cultures of mouse liver cells; assay: Inhibition of sterol synthesis from [1-14C]acetate in primary cultures of liver cells; type: cell-based
Method: as §1, §2, §3
Conditions for incubating the 15-oxygenated sterols or their derivatives with liver cell cultures were similar to those described for L cell cultures except that the cultures were incubated with the test compounds for 12 hours before labeled acetate was added or before they were harvested for enzyme assay.
as §4

[3] = tested on: HMG-CoA reductase; assay: Reduction of the activity of HMG-CoA reductase in L cell cultures; type: cell-based, mouse; conditions: read-out: Concentrations Required for 50% Reduction of the Activity of HMG-CoA Reductase
Method: as §2, §3
A number of the 15-oxygenated sterols have also been tested with respect to their effects on the activity and/or levels of the enzyme HMG-CoA reductase (3-hydroxy-3-methylglutaryl coenzyme A reductase) in the L cells and in the liver cells. As noted previously, this enzyme catalyzes the reduction of 3-hydroxy-3-methylglutaryl coenzyme A to yield mevalonic acid, an essential intermediate in the biosynthesis of sterols and of a number of other essential compounds in cells.
Using the technique described by Kandutsch and Chen in the article cited in the previous example, the concentrations of various 15-oxygenated sterols required to reduce the levels of activity of HMG-CoA reductase by 50% was determined in the cells of the L cells in culture and of the primary cultures of liver cells.

[4] = tested on: serum cholesterol; assay: Effect on serum cholesterol levels in rats, daily subcutaneous injection (Examples 41, 42); type: in vivo, rat (male, Sprague-Dawley); conditions: Example 42; for Serum Cholesterol (Mean ± S.E.M.): 5 mg s.c. once a day in triolein
Method: Male rats of the Sprague-Dawley strain were fed Purina rat chow ad libidum. The rats were maintained on a light (7 A.M.-6 P.M.) -dark (6 P.M.-7 A.M.) cycle throughout the study and for a period of at least 4 days prior to the initiation of the study.
3β-Hexadecanoyloxy-5α-cholest-8(14)-en-15-one (5 mg; dissolved in 0.25 ml of triolein), hereafter referred to as the "palmitate ester", or 3β-hemisuccinoyloxy-5α-cholest-8(14)-en-15-one (5 mg; suspended in 0.25 ml of triolein through the use of a tight-fitting all-glass homogenizer), hereafter referred to as the "hemisuccinate ester", were administered subcutaneously once a day at about 12 P.M. to each of eight and six rats, respectively. Control animals (8) received daily injections of triolein (0.25 ml).
Blood samples were taken from the rats periodically and the serum cholesterol concentrations measured, in duplicate, by the method of Abell et al., J. Biol. Chem., Vol. 195, pp. 357-366 ([…]).
Following generally the procedure described in Example 41, 3β-Ethoxy-14α-ethyl-5α-cholest-7-en-15-one (5 mg) in triolein (0.25 ml) was administered subcutaneously once a day to each of eight rats. Control animals (8) received daily injections of triolein (0.25 ml).
Similarly, 5α-cholest-8(14)-en-3β-ol-15-one (2mg) in (0.2 ml) olive oil or 5.0 mg in 0.5 ml of olive oil) was administered subcutaneously once a day to each of a group of rats. The 2 mg dose was administered to 12 rats, while a like number of rats received daily injections of 0.2 ml olive oil. 5 mg doses were administered to each of 6 rats, while 6 control animals received daily injections of 0.5 ml olive oil. The rats used in this study initially weighed between 110 and 190 grams.

[5] = read-out: Concentrations Required for 50% Inhibition of Sterol Synthesis
[6] = read-out: concentration causing 50% inhibition of sterol synthesis

## CCO[C@H]1CC[C@@]2(C)[C@@H](CC=C3[C@@H]2CC[C@]2(C)[C@@H]([C@H](C)CCCC(C)C)CC(O)[C@@]32CC)C1 (stereo partly drawn) [3β-Ethoxy-14α-ethyl-5α-cholest-7-en-15-ol]
[1]; [5]
  IC50: 0.7 µM
[2]; [5]
  IC50: 4.3 µM

## CC[C@]12C3=CC[C@H]4C[C@@H](OC(C)=O)CC[C@]4(C)[C@H]3CC[C@]1(C)[C@@H]([C@H](C)CCCC(C)C)C[C@H]2O [3β-acetoxy-14α-ethyl-5α-cholest-7-en-15β-ol]
[1]; [5]
  IC50: 0.03 µM
[3]
  IC50: 0.13 µM

## CCO[C@H]1CC[C@@]2(C)[C@@H](CC=C3[C@@H]2CC[C@]2(C)[C@@H]([C@H](C)CCCC(C)C)CC(=O)[C@@]32CC)C1 [3β-ethoxy-14α-ethyl-5α-cholest-7-en-15-one]
[4]; day 0
  Serum Cholesterol (Mean ± S.E.M.): 89.1 ± 2.2 mg per 100 ml
[4]; day 6
  Serum Cholesterol (Mean ± S.E.M.): 77.3 ± 2.1 mg per 100 ml
[4]; day 10
  Serum Cholesterol (Mean ± S.E.M.): 80.1 ± 2.3 mg per 100 ml
[4]; day 15
  Serum Cholesterol (Mean ± S.E.M.): 78.5 ± 3.3 mg per 100 ml
[4]; day 21
  Serum Cholesterol (Mean ± S.E.M.): 73.1 ± 2.3 mg per 100 ml
[4]; day 27
  Serum Cholesterol (Mean ± S.E.M.): 66.8 ± 2.6 mg per 100 ml
[4]; 5 mg s.c. once a day, day 6
  % Reduction (relative to triolein-treated rats): 4.8%
[4]; 5 mg s.c. once a day, day 10
  % Reduction (relative to triolein-treated rats): 3.4%
[4]; 5 mg s.c. once a day, day 15
  % Reduction (relative to triolein-treated rats): 3.8%
[4]; 5 mg s.c. once a day, day 21
  % Reduction (relative to triolein-treated rats): 11.5%
[4]; 5 mg s.c. once a day, day 27
  % Reduction (relative to triolein-treated rats): 18.3%
[4]; 5 mg s.c. once a day, day 27 vs. day 0
  percentage reduction in serum cholesterol levels, mean value (S.E.M.): 25.0
[1]; [5]
  IC50: > 22 µM

## CCCCCCCCCCCCCCCC(=O)O[C@H]1CC[C@@]2(C)[C@@H](CC=C3[C@@H]2CC[C@]2(C)[C@@H]([C@H](C)CCCC(C)C)C[C@H](O)[C@@]32CC)C1 [3β-hexadecanoyloxy-14α-ethyl-5α-cholest-7-en-15α-ol]
[1]; [5]
  IC50: 7 µM

## CCCCCCCCCCCCCCCC(=O)O[C@H]1CC[C@@]2(C)[C@@H](CC=C3[C@@H]2CC[C@]2(C)[C@@H]([C@H](C)CCCC(C)C)C[C@@H](O)[C@@]32CC)C1 [3β-hexadecanoyloxy-14α-ethyl-5α-cholest-7-en-15β-ol]
[1]; [5]
  IC50: > 15.1 µM

## CO[C@H]1CC[C@@]2(C)[C@@H](CC=C3[C@@H]2CC[C@]2(C)[C@@H]([C@H](C)CCCC(C)C)CC(=O)[C@@]32C)C1 [3β-methoxy-14α-methyl-5α-cholest-7-en-15-one]
[1]; [5]
  IC50: 20 µM

## CC(C)CCC[C@@H](C)[C@H]1C[C@H](O)[C@@H]2C3=CC[C@H]4CC(=O)CC[C@]4(C)[C@H]3CC[C@]12C [5α,14β-Cholest-7-en-15α-ol-3-one, 5α,14β-cholest-7-en-15α-ol-3-one]
[1]; [5]
  IC50: 2 µM

## CC(C)CCC[C@@H](C)[C@H]1C[C@@H](O)[C@@H]2C3=CC[C@H]4CC(=O)CC[C@]4(C)[C@H]3CC[C@]12C [5α,14β-Cholest-7-en-15β-ol-3-one, 5α,14β-cholest-7-en-15β-ol-3-one]
[1]; [5]
  IC50: 0.25 µM

## CC(C)CCC[C@@H](C)[C@H]1CC(=O)C2=C3CC[C@H]4C[C@H](O)CC[C@]4(C)[C@H]3CC[C@@]21C [5α-Cholest-8(14)-en-3α-ol-15-one, 5α-cholest-8(14)-en-3α-ol-15-one]
[1]; L cell cultures, read-out: Concentrations Required for 50% Inhibition of Sterol Synthesis
  IC50: 0.5 µM

## CC(C)CCC[C@@H](C)[C@H]1C[C@H](O)C2=C3CC[C@H]4C[C@@H](O)CC[C@]4(C)[C@H]3CC[C@@]21C [5α-Cholest-8(14)-en-3β,15α-diol]
[1]; [5]
  IC50: 3.7 µM
[2]; [5]
  IC50: 31 µM

## CC[C@@]12C(=O)C[C@H]([C@H](C)CCCC(C)C)[C@@]1(C)CC[C@H]1C2=CC[C@H]2C[C@H](O)CC[C@@]21C [14α-Ethyl-5α-cholest-7-en-3α-ol-15-one, 14α-ethyl-5α-cholest-7-en-3α-ol-15-one]
[1]; [5]
  IC50: < 0.1 µM
[1]
  inhibition at 0.1 µM: ~100%

## CC[C@]12C3=CC[C@H]4C[C@@H](O)CC[C@]4(C)[C@H]3CC[C@]1(C)[C@@H]([C@H](C)CCCC(C)C)C[C@@H]2O [14α-Ethyl-5α-cholest-7-en-3β,15α-diol, 14α-ethyl-5α-cholest-7-en-3β,15α-diol]
[1]; [6]
  IC50: 0.05 µM
[2]; [5]
  IC50: 0.06 µM
[2]; [6]
  IC50: 0.06 µM

## CC[C@]12C3=CC[C@H]4C[C@@H](O)CC[C@]4(C)[C@H]3CC[C@]1(C)[C@@H]([C@H](C)CCCC(C)C)C[C@H]2O [14α-Ethyl-5α-cholest-7-en-3β,15β-diol, 14α-ethyl-5α-cholest-7-en-3β,15β-diol]
[1]; [5]
  IC50: 0.4 µM
[2]; [5]
  IC50: 0.8 µM

## CC[C@]12C3=CC[C@H]4CC(=O)CC[C@]4(C)[C@H]3CC[C@]1(C)[C@@H]([C@H](C)CCCC(C)C)C[C@@H]2O [14α-Ethyl-5α-cholest-7-en-15α-ol-3-one, 14α-ethyl-5α-cholest-7-en-15α-ol-3-one]
[1]; [5]
  IC50: < 0.1 µM
[1]
  inhibition at 0.1 µM: ~100%

## CCCC[C@]12C3=CC[C@H]4C[C@@H](O)CC[C@]4(C)[C@H]3CC[C@]1(C)[C@@H]([C@H](C)CCCC(C)C)C[C@@H]2O [14α-n-Butyl-5α-cholest-7-en-3β,15α-diol, 14α-n-butyl-5α-cholest-7-en-3β,15α-diol]
[1]; [5]
  IC50: 5 µM

## CCCC[C@]12C3=CC[C@H]4C[C@@H](O)CC[C@]4(C)[C@H]3CC[C@]1(C)[C@@H]([C@H](C)CCCC(C)C)C[C@H]2O [14α-n-Butyl-5α-cholest-7-en-3β,15β-diol, 14α-n-butyl-5α-cholest-7-en-3β,15β-diol]
[1]; [5]
  IC50: 4.4 µM

## CCCC[C@@]12C(=O)C[C@H]([C@H](C)CCCC(C)C)[C@@]1(C)CC[C@H]1C2=CC[C@H]2C[C@@H](O)CC[C@@]21C [14α-n-Butyl-5α-cholest-7-en-3β-ol-15-one, 14α-n-butyl-5α-cholest-7-en-3β-ol-15-one]
[1]; [5]
  IC50: 8.3 µM

## CCC[C@]12C3=CC[C@H]4C[C@@H](O)CC[C@]4(C)[C@H]3CC[C@]1(C)[C@@H]([C@H](C)CCCC(C)C)C[C@@H]2O [14α-n-Propyl-5α-cholest-7-en-3β,15α-diol, 14α-n-propyl-5α-cholest-7-en-3β,15α-diol]
[1]; [5]
  IC50: 1.1 µM

## CCC[C@]12C3=CC[C@H]4C[C@@H](O)CC[C@]4(C)[C@H]3CC[C@]1(C)[C@@H]([C@H](C)CCCC(C)C)C[C@H]2O [14α-n-Propyl-5α-cholest-7-en-3β,15β-diol, 14α-n-propyl-5α-cholest-7-en-3β,15β-diol]
[1]; [5]
  IC50: 4.1 µM

## CCC[C@@]12C(=O)C[C@H]([C@H](C)CCCC(C)C)[C@@]1(C)CC[C@H]1C2=CC[C@H]2C[C@@H](O)CC[C@@]21C [14α-n-propyl-5α-cholest-7-en-3β-ol-15-one]
[1]; [5]
  IC50: 3.4 µM
